# Marks after values point to notes of the source that are not given here.
# What was measured:
# [1] = tested on: tocopherol-mediated peroxidation (TMP); test: Anti-TMP index; assay type: biochemical
# [2] = tested on: plasma from apoE−/−;LDLr−/− mice; test: Ex vivo plasma lipid peroxidation initiated by aqueous peroxyl radicals (AAPH); assay type: in vivo
# Method: Pooled plasma obtained from at least 3 mice receiving control diet (circles) or diet supplemented with bisphenol (squares) were treated with 5 mM AAPH and incubated at 37° C. At the times indicted aliquots were removed and analysed for α-TOH (A) and CE-O(O)H (B). 100% α-TOH levels correspond to 28±3 and 20±2 μM for control and H 212/43 plasma, respectively. Data represents the mean±SD (n=4 independent experiments).
# Oxidation of plasma, pooled from=3 mice was carried out by addition of the peroxyl radical generator (final concentrations 5 mM) and incubating the reaction mixture at 37° C. under air. Aliquots (50 μL) of the reaction mixture were removed, extracted in methanol/hexane (1:5, v/v), and the consumption of antioxidants and accumulation of lipid oxidation products determined.
# α-tocopheroxyl radical = test: Tocopheroxyl radical attenuating ability (TRAA); assay type: biochemical; settings: kobs with (+) or without (−) test compound
# [3] = tested on: ballooned New Zealand White rabbits; test: Re-endothelialization in cholesterol-fed and normal chow fed ballooned rabbits; assay type: in vivo
# Source text: Results are from two separate experiments and represent mean±SD of six (cholesterol diet) and five animals (normal diet) per group. Asterisk indicates statistically significant higher values compared with corresponding controls, with p-values of 0.002, 0.015 and 0.025 for *, ** and * respectively.
# aortas of apoE−/− mice = test: Aortic lipids, oxidised lipids and antioxidants by HPLC of aortic homogenates; assay type: in vivo; settings: 24 weeks
# Method: (§1) Male C57BL/6J mice, homozygous for the disrupted apoE gene (apoE−/−) were fed standard chow (Lab-Feed, Sydney, Australia) until aged 10 weeks. […] The high fat diet (control and probucol-supplemented) was prepared, according to the specifications of the Harlan Teklad diet TD88137.
# After bleeding, mice were gravity-perfused for 5 min with DPBS containing 20 μM BHT and 1 mM EDTA (Buffer A) and aortas removed as described in Letters J M, et al (1999). Briefly, hearts, ascending and descending aortas (past the femoral junction) were excised and carefully cleaned. […] Once cleaned, aortas were separated from the heart taking care to include all aortic material while avoiding heart tissue. To obtain sufficient material for HPLC analysis (i.e., 30-40 mg wet weight tissue) it was necessary to pool 7-8 aortas. Separate pools of aortas were prepared for both groups and then immediately frozen in Buffer A and stored at −80° C. until analyses.
# Pooled aortas were snap frozen in liquid nitrogen, pulverised, resuspended in Buffer A, homogenised and then either treated with metaphosphoric acid (for ascorbate) or extracted and the hexane fraction analysed for lipid-soluble antioxidants, cholesterol (C), choleseteryl esters (CE), lipid hydroperoxides (LOOH) and cholesteryl ester hydroxides (CE-OH) by HPLC as described in Methods Enzymol. 1994;233:469-489. LOOH and CE-OH were measured as markers of lipoprotein lipid oxidation, as they are the primary and major oxidation products formed when lipoproteins from apoE−/− mice undergo oxidation. […] All compounds were quantified by peak area comparison with authentic standards, and protein determined.
# (§2) ApoE−/− mice were fed either a control or probucol-supplemented diet for 24 weeks before aortas and plasma were analysed.
# [4] = tested on: atherosclerotic lesions in apoE−/− mice; test: Atherosclerotic lesion cross-section areas at four aortic sites (morphometry); assay type: in vivo
# Method: Male C57BL/6J mice, homozygous for the disrupted apoE gene (apoE−/−) were fed standard chow (Lab-Feed, Sydney, Australia) until aged 10 weeks. […] The high fat diet (control and probucol-supplemented) was prepared, according to the specifications of the Harlan Teklad diet TD88137. […]
# Lesions were assessed at four different sites along the aorta, in the aortic root, in the aortic arch, the descending thoracic and in the proximal abdominal aorta, and cross-sections (2-3 μm thick) were prepared and stained with Weigert's hematoxylin-van Gieson.
# apoE−/− mice = test: Plasma lipids and antioxidants; assay type: in vivo; settings: 1% probucol, 24 weeks
# Method: as §1
# Plasma was obtained from control and probucol mice and aliquots frozen for subsequent determination of lipids. Separate aliquots were acidified with metaphosphoric acid (5%) to stabilize vitamin C prior to freezing and storage at −80° C. The remainder was pooled appropriately and used for ex vivo oxidation initiated by the peroxyl radical generator AAPH and lipoprotein separation by FPLC with UV280nm detection, as described in J Lipid Res. 1999;40:1104-1112.
# Lipid-soluble antioxidants and lipids were quantified by HPLC as described in FASEB J. 1999;13:667-675. For ascorbate analysis, frozen acidified samples were thawed, diluted with DPBS to adjust the pH to 7.4 and then immediately subjected to HPLC. Plasma triglycerides were determined enzymatically (Boehringer, Mannheim, Germany).
# as §2
# [5] = pooled plasma of bisphenol-treated mice, 5 mM AAPH, 37° C., 12 h
# [6] = 2% Cholesterol-fed ballooned rabbits
# [7] = Normal Chow fed ballooned rabbits
# [8] = lipid-standardised oxidised lipids, 1% probucol
# [9] = apoE−/− mice, 1% probucol, 24 weeks
smiles,measurement,setting,value
"CC(C)(C)c1cc(-c2cc(C(C)(C)C)c(O)c(C(C)(C)C)c2)cc(C(C)(C)C)c1O [Bisphenol, bisphenol]",Anti-TMP index,[1],3.2
same,CE-OOH detected after 12 h of ex vivo oxidation,[2]; [5],< 1 µM
same,α-TOH after 12 h of ex vivo oxidation,[2]; [5],remained unaltered
same,100% α-TOH level of plasma before oxidation,[2]; pooled plasma of mice receiving bisphenol diet,20 ± 2 µM
same,TRAA (decay of tocopheroxyl radical; kobs(+)/kobs(−)),α-tocopheroxyl radical,Immediate decay
"CC(C)(Sc1cc(C(C)(C)C)c(O)c(C(C)(C)C)c1)Sc1cc(C(C)(C)C)c(O)c(C(C)(C)C)c1 [Probucol, probucol]","Re-endothelialized area, Abdominal Aorta",[3]; [6],55.1 ± 7.1** % total surface area
same,"Re-endothelialized area, Thoracic Aorta",[3]; [6],57.3 ± 5.1* % total surface area
same,"Re-endothelialized area, Abdominal Aorta",[3]; [7],48.2 ± 9.0*** % total surface area
same,"Re-endothelialized area, Thoracic Aorta",[3]; [7],50.4 ± 6.4** % total surface area
same,effect on aortic content of lipid standardised oxidized lipids,aortas of apoE−/− mice; 1% probucol,did not affect
same,Aorta Ascorbate,"aortas of apoE−/− mice; 1% probucol, aorta",322 ± 320 pmol/mgp
same,Aorta C18:2,"aortas of apoE−/− mice; 1% probucol, aorta",12 ± 6 nmol/mgp
same,Aorta C20:4,"aortas of apoE−/− mice; 1% probucol, aorta",4.0 ± 2 nmol/mgp
same,Aorta CE-OH,"aortas of apoE−/− mice; 1% probucol, aorta",0.17 ± 0.08 nmol/mgp
same,Aorta LOOH,"aortas of apoE−/− mice; 1% probucol, aorta",0.080 nmol/mgp
same,Aorta Total coenzyme Q,"aortas of apoE−/− mice; 1% probucol, aorta",139 ± 57 pmol/mgp
same,Aorta Ubiquinone-9,"aortas of apoE−/− mice; 1% probucol, aorta",114 ± 47 pmol/mgp
same,Aorta Ubiquinone-10,"aortas of apoE−/− mice; 1% probucol, aorta",25 ± 10 pmol/mgp
same,Aorta α-Tocopherol,"aortas of apoE−/− mice; 1% probucol, aorta",380 pmol/mgp
same,Aorta α-Tocopherylquinone,"aortas of apoE−/− mice; 1% probucol, aorta",30 ± 2 pmol/mgp
same,Aorta C (cholesterol),"aortas of apoE−/− mice; high fat diet with 1% probucol, aorta",173 ± 60 nmol/mgp
same,Aortic CE-OH/LH (× 10^3),aortas of apoE−/− mice; [8],12.5 ± 6.7 × 10^3
same,Aortic LOOH/LH (× 10^3),aortas of apoE−/− mice; [8],4.4^a × 10^3
same,decrease of aortic concentration of C vs controls,"aortas of apoE−/− mice; per protein, 1% probucol",5.6 fold
same,decrease of aortic concentration of total CoQ vs controls,"aortas of apoE−/− mice; per protein, 1% probucol",2.5 fold
same,decrease of aortic concentration of vitamin E vs controls,"aortas of apoE−/− mice; per protein, 1% probucol",2.9 fold
same,lesion formation at the abdominal aorta,[4]; [9],effectively prevented lesion formation
same,lesions in the aortic arch and descending thoracic aorta vs control,[4]; [9],significantly smaller
same,"lesion cross-section area, Aortic Root","[4]; apoE−/− mice, high fat diet with 1% (w/w) probucol, 24 weeks, aortic root",1180 μm^2 × 10^−3
same,"lesion cross-section area, Abdominal Aorta","[4]; apoE−/− mice, high fat diet with 1% probucol, 24 weeks, abdominal aorta",12 ± 12(3) μm^2 × 10^−3
same,"lesion cross-section area, Arch","[4]; apoE−/− mice, high fat diet with 1% probucol, 24 weeks, aortic arch",140 ± 34 μm^2 × 10^−3
same,"lesion cross-section area, Descending Thoracic Aorta","[4]; apoE−/− mice, high fat diet with 1% probucol, 24 weeks, descending thoracic aorta",*5 ± 4 (8)* μm^2 × 10^−3
same,"Treatment effect on lesion area, Abdominal Aorta","[4]; probucol vs controls, abdominal aorta",10%
same,"Treatment effect on lesion area, Arch","[4]; probucol vs controls, aortic arch",44%
same,"Treatment effect on lesion area, Aortic Root","[4]; probucol vs controls, aortic root",146%
same,"Treatment effect on lesion area, Descending Thoracic Aorta","[4]; probucol vs controls, descending thoracic aorta",15%
same,decrease of plasma vitamin E vs controls,apoE−/− mice,~4 fold
same,increase of plasma ascorbate vs controls,apoE−/− mice,~1.4 fold
same,Plasma Ascorbate,apoE−/− mice; plasma,129.2 µM
same,Plasma C18:2,apoE−/− mice; plasma,1.3 ± 0.8 mM
same,Plasma C20:4,apoE−/− mice; plasma,0.2 ± 0.2 mM
same,Plasma C (cholesterol),apoE−/− mice; plasma,2.6 ± 1.2 mM
same,Plasma CE-OH,apoE−/− mice; plasma,0.0002 mM
same,Plasma Total coenzyme Q,apoE−/− mice; plasma,0.4 µM
same,Plasma Triglycerides,apoE−/− mice; plasma,0.4 ± 0.0 mM
same,Plasma Ubiquinol-10,apoE−/− mice; plasma,0.01 ± 0.02 µM
same,Plasma Ubiquinone-9,apoE−/− mice; plasma,0.3 ± 0.1 µM
same,Plasma Ubiquinone-10,apoE−/− mice; plasma,0.1 ± 0.1 µM
same,Plasma α-Tocopherol,apoE−/− mice; plasma,10.5 ± 3.50 µM

# Source: patent publication US20020115728A1, “Compositions and methods for treating cardiovascular disorders” (priority 2000, published 2002)
